In paper PMC12881674, “Activation of TRPV3 channels in bladder cancer cells stimulates ATP release” (Molecular Pharmacology, 2025):

Biological target: T1, mouse TRPV3 (Mus musculus, UniProt Q8K424)
T1 construct: expressed in transfected cells; host or cells: HEK293
T1 sequence (Q8K424 1-791): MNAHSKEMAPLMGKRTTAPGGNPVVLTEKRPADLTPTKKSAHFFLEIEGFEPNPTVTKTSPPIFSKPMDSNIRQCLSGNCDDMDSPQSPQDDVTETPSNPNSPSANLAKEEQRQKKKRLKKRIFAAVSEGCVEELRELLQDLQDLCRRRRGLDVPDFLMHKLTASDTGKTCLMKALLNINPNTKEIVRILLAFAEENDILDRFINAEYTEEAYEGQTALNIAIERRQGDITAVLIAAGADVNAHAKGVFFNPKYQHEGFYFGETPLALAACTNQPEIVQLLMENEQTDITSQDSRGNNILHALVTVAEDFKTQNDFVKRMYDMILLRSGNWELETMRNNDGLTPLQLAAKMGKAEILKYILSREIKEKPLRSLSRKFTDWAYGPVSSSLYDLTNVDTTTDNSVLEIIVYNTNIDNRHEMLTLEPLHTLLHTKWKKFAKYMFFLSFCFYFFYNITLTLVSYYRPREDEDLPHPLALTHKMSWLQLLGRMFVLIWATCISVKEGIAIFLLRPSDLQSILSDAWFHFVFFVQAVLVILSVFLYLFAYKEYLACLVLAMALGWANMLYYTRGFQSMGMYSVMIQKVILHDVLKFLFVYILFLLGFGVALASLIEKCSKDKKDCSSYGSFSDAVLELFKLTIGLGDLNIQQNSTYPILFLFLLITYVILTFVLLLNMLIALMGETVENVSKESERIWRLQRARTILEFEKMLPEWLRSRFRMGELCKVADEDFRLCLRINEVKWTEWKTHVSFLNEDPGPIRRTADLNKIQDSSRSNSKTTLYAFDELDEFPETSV
Test: whole-cell patch-clamp recordings in HEKmTRPV3 cells
Assay type: cell-based
Method: Whole-cell patch-clamp recordings were performed at room temperature using an […] amplifier connected to a Digidata 1440A digitizer under the control of the pCLAMP 10 software suite (Molecular Devices). Cells were plated onto PLL-coated glass coverslips 24–48 hours prior to recordings. […] The extracellular buffer consisted of 140 mM NaCl, 5 mM CsCl, 2 mM MgCl2, 1 mM CaCl2, and 10 mM HEPES, adjusted to pH 7.4 with NaOH. Recordings were performed with a liquid junction potential of +3.6 mV, which was not corrected. Voltage ramps ranging from −100 to 100 mV (500-millisecond duration) were applied at 1-second intervals. Series resistance was <15 MΩ and compensated by 70%. Only recordings with stable access resistance and minimal leak currents were included in the analysis. […]
Fig. 2 Electrophysiological analysis of AV3-1–activated TRPV3 currents in HEKmTRPV3 cells. […] Current amplitudes were recorded using voltage ramps from −100 mV to +100 mV (500-millisecond duration) such as in B and expressed as current density (pA/pF) measured at +100 mV and −100 mV. […] (C) Quantification of current densities (pA/pF) at −100 mV (inward current) and +100 mV (outward current) at the time points (1, 6–8) as indicated in (A). […] Statistical significance was determined using Kruskal-Wallis ANOVA followed by Conover test; ∗P < .05. […]

TRPV3 currents evoked by activator (5 μM AV3-1, voltage ramps -100 to +100 mV): robust TRPV3-like currents
reversibility of effect on TRPV3 upon washout (washout of 5 μM AV3-1): fully reversible
Compound: COC(=O)C12CN(Cc3ccccc3)CC1(C(=O)OC)CN(Cc1ccccc1)C2 (centres unmarked) [AV3-1]
